Results published in ChEMBL document CHEMBL3779818, “Design, synthesis and evaluation of a novel stacking nano-intercalator as an anti-tumor agent” (Medchemcomm, 2016).
Active and inactive are the calls of the source. The rule behind the calls is not given here.

Key:
[1] = tested on: Liver; experiment: Drug uptake in ICR mouse liver xenografted with mouse S180 cells at 1 umol/kg/day, po after 7 days; format: ADME, organism-based, CCRF S-180; details: in vivo, 168 h
[2] = tested on: CCRF S-180; experiment: Antitumor activity against mouse S180 cells xenografted in po dosed ICR mouse assessed as decrease in tumor growth administered daily for 14 days; format: functional, organism-based
[3] = tested on: Mus musculus; experiment: Acute toxicity in ICR mouse assessed as change in serum ALT level at 100 umol/kg, po administered as single dose measured on 7th day; format: organism-based; details: in vivo
[4] = tested on: Kidney; experiment: Drug uptake in ICR mouse kidney xenografted with mouse S180 cells at 1 umol/kg/day, po after 7 days; format: ADME, organism-based, CCRF S-180; details: in vivo, 168 h
[5] = tested on: Lung; experiment: Drug uptake in ICR mouse lung xenografted with mouse S180 cells at 1 umol/kg/day, po after 7 days; format: ADME, organism-based, CCRF S-180; details: in vivo, 168 h
[6] = tested on: Mus musculus; experiment: Acute toxicity in ICR mouse assessed as change in serum AST level at 100 umol/kg, po administered as single dose measured on 7th day; format: organism-based; details: in vivo
[7] = tested on: Tumour; experiment: Drug level in tumor in ICR mouse xenografted with S180 cells at 1 umol/kg/day, po after 7 days; format: ADME, organism-based, Neoplasm, CCRF S-180; details: in vivo, 168 h
[8] = tested on: Brain; experiment: Drug uptake in ICR mouse brain xenografted with mouse S180 cells at 1 umol/kg/day, po after 7 days; format: ADME, organism-based, CCRF S-180; details: in vivo, 168 h
[9] = tested on: Mus musculus; experiment: Acute toxicity in ICR mouse assessed as morphological changes in organs at 100 umol/kg, po administered as single dose observed for 7 days; format: organism-based; details: in vivo, 168 h
[10] = tested on: Heart; experiment: Drug uptake in ICR mouse heart xenografted with mouse S180 cells at 1 umol/kg/day, po after 7 days; format: ADME, organism-based, CCRF S-180; details: in vivo, 168 h
[11] = tested on: Spleen; experiment: Drug uptake in ICR mouse spleen xenografted with mouse S180 cells at 1 umol/kg/day, po after 7 days; format: ADME, organism-based, CCRF S-180; details: in vivo, 168 h
[12] = tested on: Mus musculus; experiment: Acute toxicity in ICR mouse assessed as change in serum creatinine level at 100 umol/kg, po administered as single dose measured on 7th day; format: organism-based; details: in vivo
[13] = tested on: CCRF S-180; experiment: Antiproliferative activity against mouse S180 cells at 3.5 uM after 24 hrs by confocal microscopy; format: functional, cell-based
[14] = tested on: Calf thymus DNA; experiment: Induction of DNA intercalation of calf thymus DNA assessed as increase in fluorescence intensity at 345 nm using 80 uM calf thymus DNA by fluorescence spectroscopy; format: nucleic-acid assay; details: Bos taurus
[15] = tested on: HeLa; experiment: Antiproliferative activity against human HeLa cells assessed as cell viability after 48 hrs by MTT assay; format: functional, cell-based
[16] = tested on: CCRF S-180; experiment: Antiproliferative activity against mouse S180 cells assessed as cell viability after 48 hrs by MTT assay; format: functional, cell-based; details: CCRF S-180, 48 h
[17] = tested on: Mus musculus; experiment: Acute toxicity in ICR mouse assessed as normal behavior at 100 umol/kg, po administered as single dose observed for 7 days; format: organism-based; details: in vivo, 168 h
[18] = tested on: CCRF S-180; experiment: Potency index, ratio of activity of Doxorubicin to test compound for antitumor activity against mouse S180 cells; format: functional
[19] = Retention time of compound by HPLC method; format: physicochemical
[20] = tested on: HeLa; experiment: Antiproliferative activity against human HeLa cells at 3.5 uM after 24 hrs by confocal microscopy; format: functional, cell-based
[21] = tested on: Calf thymus DNA; experiment: Induction of DNA intercalation of calf thymus DNA assessed as decrease in absorption at 7.4 uM measured at 258 nm using 200 uM calf thymus DNA by UV spectrophotometry; format: nucleic-acid assay; details: Bos taurus
[22] = tested on: Calf thymus DNA; experiment: Induction of DNA intercalation of calf thymus DNA assessed as increase in absorption at 7.4 uM measured at 208 nm using 200 uM calf thymus DNA by UV spectrophotometry; format: nucleic-acid assay; details: Bos taurus
[23] = tested on: Calf thymus DNA; experiment: Induction of DNA intercalation of calf thymus DNA assessed as increase in absorption at 0.9 uM using 4 uM calf thymus DNA measured at 208 nm by UV spectrophotometry; format: nucleic-acid assay; details: Bos taurus
[24] = tested on: Calf thymus DNA; experiment: Induction of DNA intercalation of calf thymus DNA assessed as decrease in fluorescence intensity at 345 nm measured at 0.18 uM by fluorescence spectroscopy; format: nucleic-acid assay; details: Bos taurus
[25] = tested on: Blood; experiment: Drug uptake in ICR mouse blood xenografted with mouse S180 cells at 1 umol/kg/day, po after 7 days; format: ADME, organism-based, CCRF S-180; details: in vivo, 168 h
[26] = tested on: Mus musculus; experiment: Cardiotoxicity in ICR mouse xenografted with mouse S180 cells; format: toxicity, organism-based, CCRF S-180; details: in vivo
[27] = tested on: Calf thymus DNA; experiment: Induction of DNA intercalation of calf thymus DNA assessed as increase in absorption at 0.9 uM using 4 uM calf thymus DNA measured at 258 nm by UV spectrophotometry; format: nucleic-acid assay; details: Bos taurus
[28] = tested on: Mus musculus; experiment: Acute toxicity in ICR mouse xenografted with S180 cells assessed as heart weight at 100 umol/kg, po; format: organism-based, CCRF S-180; details: in vivo
[29] = tested on: Mus musculus; experiment: Acute toxicity in ICR mouse xenografted with S180 cells assessed as liver weight at 100 umol/kg, po; format: organism-based, CCRF S-180; details: in vivo
[30] = tested on: Mus musculus; experiment: Acute toxicity in ICR mouse xenografted with S180 cells assessed as brain weight at 100 umol/kg, po; format: organism-based, CCRF S-180; details: in vivo
[31] = tested on: Mus musculus; experiment: Acute toxicity in ICR mouse xenografted with S180 cells assessed as spleen weight at 100 umol/kg, po; format: organism-based, CCRF S-180; details: in vivo
[32] = tested on: Mus musculus; experiment: Acute toxicity in ICR mouse xenografted with S180 cells assessed as kidney weight at 100 umol/kg, po; format: organism-based, CCRF S-180; details: in vivo

Q: For `O=C1[C@@H]2Cc3c([nH]c4ccccc34)CN2C(=O)[C@@H]2Cc3c([nH]c4ccccc34)CN12`, which Drug uptake [1] is on record?
A: The Drug uptake was “Not Active”.

Q: What about the Activity [2] of the same compound?
A: The Activity was “Dose-dependent effect”.

Q: What about the Activity [3] of the same compound?
A: The Activity was “Non-toxic”.

Q: And the Drug uptake [4]?
A: The Drug uptake was “Not Active”.

Q: What about the Drug uptake [5] of the same compound?
A: The Drug uptake was “Not Active”.

Q: And the Activity [6]?
A: The Activity was “Non-toxic”.

Q: And the Drug uptake [7]?
A: The Drug uptake was “Active”.

Q: And the Drug uptake [8]?
A: The Drug uptake was “Not Active”.

Q: What about the Activity [9] of the same compound?
A: The Activity was “Non-toxic”.

Q: And the Drug uptake [10]?
A: The Drug uptake was “Not Active”.

Q: And the Drug uptake [11]?
A: Its Drug uptake is “Not Active”.

Q: And the Activity [12]?
A: The Activity was “Non-toxic”.

Q: And the Activity [13]?
A: Its Activity is “Active”.

Q: What about the Activity [14] of the same compound?
A: The Activity was “Active”.

Q: What about the IC50 [15] of the same compound?
A: Its IC50 is 3500 nM.

Q: What about the IC50 [16] of the same compound?
A: Its IC50 is 390 nM.

Q: What about the Activity [17] of the same compound?
A: The Activity was “Non-toxic”.

Q: And the Ratio [18]?
A: The Ratio was 2.

Q: And the Retention_time [19]?
A: Its Retention_time is 5.704 min.

Q: What about the Activity [20] of the same compound?
A: The Activity was “Active”.

Q: What about the Activity [21] of the same compound?
A: The Activity was “Active”.

Q: And the Activity [22]?
A: The Activity was “Active”.

Q: And the Activity [23]?
A: Its Activity is “Active”.

Q: What about the Activity [24] of the same compound?
A: Its Activity is “Active”.

Q: What about the Drug uptake [25] of the same compound?
A: Its Drug uptake is “Not Active”.

Q: And the Activity [26]?
A: The Activity was “Non-toxic”.

Q: And the Activity [27]?
A: Its Activity is “Active”.

Q: And the Activity [28]?
A: The Activity was “Non-toxic”.

Q: What about the Activity [29] of the same compound?
A: The Activity was “Non-toxic”.

Q: And the Activity [30]?
A: The Activity was “Non-toxic”.

Q: And the Activity [31]?
A: Its Activity is “Non-toxic”.

Q: And the Activity [32]?
A: The Activity was “Non-toxic”.

Q: Which Activity [26] does the source give for `COc1cccc2c1C(=O)c1c(O)c3c(c(O)c1C2=O)C[C@@](O)(C(=O)CO)C[C@@H]3O[C@H]1C[C@H](N)[C@H](O)[C@H](C)O1` [DOXORUBICIN] here?
A: Its Activity is “Toxic”.
